Values belong to the compound of their own block, whether it stands above or below them. Peptide text beside a SMILES is read from it. * marks the point of attachment. Cbz = O=C(OCc1ccccc1)*
Key:
[1] = biological target: T1, EGFP-human Top1 in MCF7 cells (Homo sapiens, UniProt P11387); experiment: FRAP of EGFP-Top1 in live MCF7 cells; assay type: cell-based; details: 5 μM, 10 min
T1 construct: expressed in transfected cells; host or cells: MCF7 cells, transient transfection (Lipofectamine 2000)
T1 sequence (P11387 1-765): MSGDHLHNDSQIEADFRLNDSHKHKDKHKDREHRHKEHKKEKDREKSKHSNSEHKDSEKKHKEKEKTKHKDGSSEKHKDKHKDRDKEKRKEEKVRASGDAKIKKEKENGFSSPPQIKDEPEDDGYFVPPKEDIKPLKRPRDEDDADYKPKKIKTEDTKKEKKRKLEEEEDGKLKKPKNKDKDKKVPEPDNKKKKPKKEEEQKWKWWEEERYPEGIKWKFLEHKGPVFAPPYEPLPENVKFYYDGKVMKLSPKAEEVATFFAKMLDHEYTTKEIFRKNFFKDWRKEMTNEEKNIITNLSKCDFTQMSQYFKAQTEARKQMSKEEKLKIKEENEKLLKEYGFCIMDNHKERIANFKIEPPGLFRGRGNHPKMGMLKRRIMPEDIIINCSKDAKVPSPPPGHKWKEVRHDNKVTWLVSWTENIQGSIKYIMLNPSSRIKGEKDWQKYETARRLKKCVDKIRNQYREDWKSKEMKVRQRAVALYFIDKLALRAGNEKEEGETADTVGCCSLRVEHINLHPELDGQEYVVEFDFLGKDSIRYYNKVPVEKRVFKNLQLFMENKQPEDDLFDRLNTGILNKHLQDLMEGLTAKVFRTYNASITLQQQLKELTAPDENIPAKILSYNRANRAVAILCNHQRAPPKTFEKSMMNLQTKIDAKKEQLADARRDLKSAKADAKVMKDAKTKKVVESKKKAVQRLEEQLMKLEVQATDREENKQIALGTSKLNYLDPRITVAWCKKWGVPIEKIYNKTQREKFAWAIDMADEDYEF
Protocol: To obtain direct evidence for compound 8 mediated inhibition of Top1cc formation in live human carcinoma cells, we used MCF7 cells and transiently expressed EGFP-Top1. Live cells expressing ectopic Top1 were analyzed under laser confocal microscopy equipped with fluorescence recovery after photobleaching (FRAP) technology.[40]−[42]
Photobleaching experiments were performed as described formerly[40]−[42] using Andor Spining disk inverted confocal laser-scanning microscope equipped with a 60×/1.42 NA oil-immersion objective (Olympus) and with a CO2-controlled on-stage heated environmental chamber set to 37 °C. FRAP analyses were carried out with living MCF7 cells ectopically expressing EGFP-human Top1 grown on chamber cover glass (Genetix, India) and drug treated as indicated. For FRAP analysis, a subnuclear spot was bleached for 30 ms by solid-state laser line (488 nm for EGFP) adapted to the fluorescent protein of interest and FRAP curves were generated individually normalized to the prebleach signal as described previously.[42]

[2] = biological target: T2, cellular Top1 in MCF7 cells (Homo sapiens, UniProt P11387); experiment: Western blot of Top1 in whole cell extracts of treated MCF7 cells; assay type: cell-based; details: MG132 100 nM preincubated 4 h, then compound 8 10 μM 12 h
T2 construct: endogenous in cells; host or cells: MCF7 cells
T2 sequence (P11387 2-765 limits assumed): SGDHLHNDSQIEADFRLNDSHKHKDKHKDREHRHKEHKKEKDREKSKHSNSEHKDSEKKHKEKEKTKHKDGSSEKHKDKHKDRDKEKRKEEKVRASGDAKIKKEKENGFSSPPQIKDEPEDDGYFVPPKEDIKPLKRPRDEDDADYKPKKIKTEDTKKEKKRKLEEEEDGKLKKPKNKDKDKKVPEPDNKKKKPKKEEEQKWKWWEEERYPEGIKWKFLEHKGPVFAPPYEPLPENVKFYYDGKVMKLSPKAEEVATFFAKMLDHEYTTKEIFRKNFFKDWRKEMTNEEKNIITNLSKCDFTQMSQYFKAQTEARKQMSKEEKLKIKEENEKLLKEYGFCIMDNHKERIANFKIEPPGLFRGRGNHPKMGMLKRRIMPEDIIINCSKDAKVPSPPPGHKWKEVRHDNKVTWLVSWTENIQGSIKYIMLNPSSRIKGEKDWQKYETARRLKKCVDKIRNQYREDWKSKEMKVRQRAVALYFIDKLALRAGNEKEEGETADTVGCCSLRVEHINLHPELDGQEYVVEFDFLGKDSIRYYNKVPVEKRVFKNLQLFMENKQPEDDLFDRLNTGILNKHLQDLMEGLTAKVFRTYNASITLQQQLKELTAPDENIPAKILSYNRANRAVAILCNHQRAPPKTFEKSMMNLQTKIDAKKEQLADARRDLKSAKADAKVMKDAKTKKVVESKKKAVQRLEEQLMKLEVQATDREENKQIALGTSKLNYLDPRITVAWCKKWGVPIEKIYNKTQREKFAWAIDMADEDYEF
Protocol: Because compound 8 binds with free Top1 (Figure 3) and inhibits Top1cc formation in live cells (Figure 2E), we examined the impact of compound 8 on endogenous Top1. Cellular lysates were prepared from MCF7 cells treated with compound 8 for indicated times and were analyzed by Western blotting. […] Because proteasome has been implicated for Top1 degradation,[7],[9],[45] we used proteasome specific inhibitor (MG132) to investigate Top1 proteolysis in compound 8 treated cells.
Preparation of whole cell extracts from MCF7 cells and immunoblotting were carried out as described.[6],[40],[41] Immunoreactivity was detected using ECL chemiluminescence reaction (Amersham) under ChemiDoc MP system (Bio-Rad, USA).

MCF7 cells [3] = experiment: Alkaline comet assay; assay type: cell-based, human; details: NAC 10 mM pretreatment 30 min before compound 8
Text: Therefore, we directly measured compound 8 induced DNA strand breaks at single cellular level by using alkaline comet assays (Figure 5B,C) and simultaneously measured the apoptotic cell death by immunofluorescence staining of the apoptosis marker phosphatidylserine with annexin V-FITC antibody (Figure 5D,E). Compound 8 treated MCF7 cells accumulate ∼8-fold increase in DNA strand breaks (Figure 5B and Figure 5C) compared to untreated cells, resulting in ∼7-fold elevation in compound 8 induced annexin V(+) apoptotic cells (Figure 5D and Figure 5E). […] Therefore, we conclude that compound 8 triggers reactive oxygen species induced DNA degradation and apoptotic cell death without stabilizing Top1-DNA cleavage complexes.
To detect the levels of drug-induced DNA breaks, after treatment MCF7 cells were subjected to alkaline comet assays according to the manufacturer’s instructions (Trevigen, USA) and comet length was measured and was scored for at least 50 cells. Distributions of comet lengths were compared using the Student’s t-test as described previously.[13],[40],[50]

MCF7 cells [4] = experiment: Measurement of intracellular ROS (H2DCFDA); assay type: cell-based, human; details: NAC 10 mM pretreatment 30 min before compound 8 10 μM
Text: Next, to investigate the mechanistic link between compound 8 induced cellular Top1 inhibition (Figure 1), degradation (Figure 4A and Figure 4B), and activation of apoptosis (Figure 4C), we tested reactive oxygen species (ROS) formation and accumulation of oxidative DNA fragmentation[15],[17],[46] in compound 8 treated MCF7 cells. […] We observed a marked elevation (∼3- to 5-fold) in ROS accumulation (Figure 5A) under similar conditions that activate PARP1 cleavage (Figure 4C). Nonetheless, MCF7 cells pretreated with N-acetylcysteine (NAC), a specific inhibitor of ROS, reduced compound 8 induced ROS generation by ∼3-fold (Figure 5A).
Intracellular ROS was detected in drug-treated MCF7 cells with or without pretreatment of N-acetyl-L-cysteine (NAC) for indicated time as described.[13],[46] Briefly, cells were washed and resuspended in 500 μL of 1× PBS and were loaded with 2 μg/mL of H2DCFDA (Molecular Probes) for 30 min, and green fluorescence of 2,7-dichlorofluorescein was measured at 515 nm by spectrofluorometer.

[5] = tested on: relaxed pBS (SK+) plasmid DNA; experiment: Topoisomerase I unwinding assay (DNA intercalation); details: m-AMSA and etoposide 50 and 300 μM; compound 8 50, 100, 300 μM
Protocol: Therefore, compound 8 interacts in reversible manner with Top1 to inhibit the plasmid relaxation activity (Figure 1).
The competence of the drug to intercalate into plasmid DNA was determined by Top1 unwinding assay.[36],[44] Assays were performed with 50 fmol of pBluscript (SK+) DNA in the presence or absence of compound 8, m-AMSA, and etoposide at indicated concentrations. Excess of DNA topoisomerase I was reacted with supercoiled plasmid DNA to generate relaxed DNA for the unwinding assays. The relaxed DNA was purified by proteolytic digestion with proteinase K at 37 °C, followed by phenol/chloroform extraction and ethanol precipitation. The unwinding assays were carried out at 37 °C for 15 min with independent compounds and were analyzed by 1% agarose gel as described above.

Compound: CC[C@@]1(O)C(=O)OCc2c1cc1n(c2=O)Cc2cc3ccccc3nc2-1 [CPT, Camptothecin, reference compound]
Increase of Top1 immobile population (FRAP) [1]: 40–50%

Compound: CC(C)C[C@@H](C=O)NC(=O)[C@H](CC(C)C)NC(=O)[C@H](CC(C)C)NC(=O)OCc1ccccc1 [MG132, reference compound] (Cbz-Leu-Leu-Leu-aldehyde)
Effect on 8-induced degradation of Top1 [2]: abrogated

Compound: CC(=O)N[C@@H](CS)C(=O)O [NAC, N-acetyl-L-cysteine]
Decrease in compound 8 induced DNA breaks (MCF7 cells [3]): ~4 fold | Reduction of compound 8 induced ROS generation (MCF7 cells [4]): ~3 fold

Negative supercoiling of relaxed plasmid DNA (intercalation) [5]: failed to show such effect
Compound: COc1cc([C@@H]2c3cc4c(cc3[C@@H](O[C@@H]3O[C@@H]5CO[C@@H](C)O[C@H]5[C@H](O)[C@H]3O)[C@H]3COC(=O)[C@H]23)OCO4)cc(OC)c1O [etoposide]

Compound: COc1cc(NS(C)(=O)=O)ccc1Nc1c2ccccc2nc2ccccc12 [m-AMSA]
Negative supercoiling of relaxed plasmid DNA (intercalation) [5]: incites a net negative supercoiling of the relaxed plasmid DNA

From publication PMC5808360, “Neutral Porphyrin Derivative Exerts Anticancer Activity by Targeting Cellular Topoisomerase I (Top1) and Promotes Apoptotic Cell Death without Stabilizing Top1-DNA Cleavage Complexes” (Journal of Medicinal Chemistry, 2017)
